smiles,measurement,setting,value
Nc1ccc(Br)nn1,solubility (mole fraction),"in DMF, 278.15 K",0.0126
same,solubility (mole fraction),"in DMF, 283.15 K",0.0134
same,solubility (mole fraction),"in DMF, 288.15 K",0.0144
same,solubility (mole fraction),"in DMF, 293.15 K",0.0155
same,solubility (mole fraction),"in DMF, 298.15 K",0.0167
same,solubility (mole fraction),"in DMF, 303.15 K",0.0179
same,solubility (mole fraction),"in DMF, 308.15 K",0.0192
same,solubility (mole fraction),"in DMF, 313.15 K",0.0206
same,solubility (mole fraction),"in DMF, 318.15 K",0.0223
same,solubility (mole fraction),"in DMF, 323.15 K",0.0242
same,solubility (mole fraction),"in acetone, 278.15 K",0.00754
same,solubility (mole fraction),"in acetone, 283.15 K",0.00832
same,solubility (mole fraction),"in acetone, 288.15 K",0.0092
same,solubility (mole fraction),"in acetone, 293.15 K",0.0102
same,solubility (mole fraction),"in acetone, 298.15 K",0.0113
same,solubility (mole fraction),"in acetone, 303.15 K",0.0125
same,solubility (mole fraction),"in acetone, 308.15 K",0.0138
same,solubility (mole fraction),"in acetone, 313.15 K",0.0153
same,solubility (mole fraction),"in acetone, 318.15 K",0.0169
same,solubility (mole fraction),"in acetone, 323.15 K",0.0188
same,solubility (mole fraction),"in ethanol, 278.15 K",0.00216
same,solubility (mole fraction),"in ethanol, 283.15 K",0.00233
same,solubility (mole fraction),"in ethanol, 288.15 K",0.00251
same,solubility (mole fraction),"in ethanol, 293.15 K",0.0027
same,solubility (mole fraction),"in ethanol, 298.15 K",0.0029
same,solubility (mole fraction),"in ethanol, 303.15 K",0.00314
same,solubility (mole fraction),"in ethanol, 308.15 K",0.0034
same,solubility (mole fraction),"in ethanol, 313.15 K",0.00366
same,solubility (mole fraction),"in ethanol, 318.15 K",0.00399
same,solubility (mole fraction),"in ethanol, 323.15 K",0.0044
same,solubility (mole fraction),"in isopropanol, 278.15 K",0.00276
same,solubility (mole fraction),"in isopropanol, 283.15 K",0.0031
same,solubility (mole fraction),"in isopropanol, 288.15 K",0.00346
same,solubility (mole fraction),"in isopropanol, 293.15 K",0.00384
same,solubility (mole fraction),"in isopropanol, 298.15 K",0.0043
same,solubility (mole fraction),"in isopropanol, 303.15 K",0.00475
same,solubility (mole fraction),"in isopropanol, 308.15 K",0.0053
same,solubility (mole fraction),"in isopropanol, 313.15 K",0.00586
same,solubility (mole fraction),"in isopropanol, 318.15 K",0.00649
same,solubility (mole fraction),"in isopropanol, 323.15 K",0.00721
same,solubility (mole fraction),"in methanol, 278.15 K",0.00108
same,solubility (mole fraction),"in methanol, 283.15 K",0.00115
same,solubility (mole fraction),"in methanol, 288.15 K",0.00123
same,solubility (mole fraction),"in methanol, 293.15 K",0.00131
same,solubility (mole fraction),"in methanol, 298.15 K",0.00142
same,solubility (mole fraction),"in methanol, 303.15 K",0.00152
same,solubility (mole fraction),"in methanol, 308.15 K",0.00165
same,solubility (mole fraction),"in methanol, 313.15 K",0.00178
same,solubility (mole fraction),"in methanol, 318.15 K",0.00192
same,solubility (mole fraction),"in methanol, 323.15 K",0.00209
same,solubility (mole fraction),"in n-butanol, 278.15 K",0.00362
same,solubility (mole fraction),"in n-butanol, 283.15 K",0.00405
same,solubility (mole fraction),"in n-butanol, 288.15 K",0.00451
same,solubility (mole fraction),"in n-butanol, 293.15 K",0.005
same,solubility (mole fraction),"in n-butanol, 298.15 K",0.00556
same,solubility (mole fraction),"in n-butanol, 303.15 K",0.0062
same,solubility (mole fraction),"in n-butanol, 308.15 K",0.00687
same,solubility (mole fraction),"in n-butanol, 313.15 K",0.00759
same,solubility (mole fraction),"in n-butanol, 318.15 K",0.00838
same,solubility (mole fraction),"in n-butanol, 323.15 K",0.00933
same,solubility (mole fraction),"in n-propanol, 278.15 K",0.00316
same,solubility (mole fraction),"in n-propanol, 283.15 K",0.00356
same,solubility (mole fraction),"in n-propanol, 288.15 K",0.00401
same,solubility (mole fraction),"in n-propanol, 293.15 K",0.00446
same,solubility (mole fraction),"in n-propanol, 298.15 K",0.00496
same,solubility (mole fraction),"in n-propanol, 303.15 K",0.00557
same,solubility (mole fraction),"in n-propanol, 308.15 K",0.00617
same,solubility (mole fraction),"in n-propanol, 313.15 K",0.00683
same,solubility (mole fraction),"in n-propanol, 318.15 K",0.00758
same,solubility (mole fraction),"in n-propanol, 323.15 K",0.0085
same,solubility (mole fraction),"in propylene glycol, 278.15 K",0.00191
same,solubility (mole fraction),"in propylene glycol, 283.15 K",0.00205
same,solubility (mole fraction),"in propylene glycol, 288.15 K",0.0022
same,solubility (mole fraction),"in propylene glycol, 293.15 K",0.0024
same,solubility (mole fraction),"in propylene glycol, 298.15 K",0.0026
same,solubility (mole fraction),"in propylene glycol, 303.15 K",0.00281
same,solubility (mole fraction),"in propylene glycol, 308.15 K",0.00305
same,solubility (mole fraction),"in propylene glycol, 313.15 K",0.0033
same,solubility (mole fraction),"in propylene glycol, 318.15 K",0.00357
same,solubility (mole fraction),"in propylene glycol, 323.15 K",0.00391
same,solubility (mole fraction),"in toluene, 278.15 K",0.00989
same,solubility (mole fraction),"in toluene, 283.15 K",0.0108
same,solubility (mole fraction),"in toluene, 288.15 K",0.0118
same,solubility (mole fraction),"in toluene, 293.15 K",0.0129
same,solubility (mole fraction),"in toluene, 298.15 K",0.0141
same,solubility (mole fraction),"in toluene, 303.15 K",0.0154
same,solubility (mole fraction),"in toluene, 308.15 K",0.0167
same,solubility (mole fraction),"in toluene, 313.15 K",0.018
same,solubility (mole fraction),"in toluene, 318.15 K",0.0196
same,solubility (mole fraction),"in toluene, 323.15 K",0.0213
same,solubility (mole fraction),"in water, 278.15 K",2.57e-05
same,solubility (mole fraction),"in water, 283.15 K",2.74e-05
same,solubility (mole fraction),"in water, 288.15 K",2.94e-05
same,solubility (mole fraction),"in water, 293.15 K",3.18e-05
same,solubility (mole fraction),"in water, 298.15 K",3.43e-05
same,solubility (mole fraction),"in water, 303.15 K",3.7e-05
same,solubility (mole fraction),"in water, 308.15 K",3.97e-05
same,solubility (mole fraction),"in water, 313.15 K",4.27e-05
same,solubility (mole fraction),"in water, 318.15 K",4.6e-05
same,solubility (mole fraction),"in water, 323.15 K",4.98e-05
